Measured values reported in publication PMC7822874, “Chemoprotective antimalarials identified through quantitative high-throughput screening of Plasmodium blood and liver stage parasites” (Scientific Reports, 2021).
Values joined by “and” are separate entries in the source; they are usually repeats but may differ in a detail not shown here. Equal entries are not always repeated. Where two headings read alike, the source gives them in different places.

Assays:
[1] = test system: T1, Plasmodium falciparum Dd2-attB (parental line), asexual blood stages; experiment: microbe, parasite or virus in culture; parameters: replicate k of 3 (each line is one of three independent assays; the three lines of one compound and parasite line follow each other); details: n = 1; for Individual replicates / Log AC50 (M): 72 h; for AC50: Plasmodium falciparum, DD2, 72 h, read-out: Individual replicates / Log AC50 (converted)
T1 construct: Dd2-attB, the isogenic parental line
Method: (§1) The overexpression of the fumarate-dependent yeast DHODH confers resistance to compounds that inhibit the parasite mETC, or the parasite DHODH enzyme that depends on ubiquinone provided by the parasite mETC. Assays were performed in three independent assays on a subset of compounds, and differences between the Dd2-attB parental line and the ScDHODH transgenic line were analyzed using two-sided Student’s t-tests.

[2] = test system: T2, Plasmodium falciparum Dd2-attB-ScDHODH (transgenic line expressing yeast DHODH), asexual blood stages; experiment: organism not typed; parameters: replicate k of 3 (each line is one of three independent assays; the three lines of one compound and parasite line follow each other)
T2 construct: Dd2-attB-ScDHODH, the transgenic line that expresses yeast DHODH
Method: as §1

[3] = 72 h; n = 1; read-out: Individual replicates / Log AC50 (converted)

Cc1ccc2nc(-c3ccccn3)c(Nc3ccccc3C)n2c1 [NCGC00106087-03]
Individual replicates / Log AC50 (M) [1]: -5.3486 Log AC50 (M) and -5.2486 Log AC50 (M) | AC50 [1]: 4.48 µM | Individual replicates / Log AC50 (M) ([2]; 72 h, n = 1): -5.1986 Log AC50 (M) and -5.1486 Log AC50 (M) | AC50 [2, 3]: 5.64e-06 M

CN(C)c1cnc2c(O)ccc(C(=O)O)c2c1 [NCGC00189499-01]
Individual replicates / Log AC50 (M) [1]: -4.7486 Log AC50 (M) | AC50 [1]: 14.2 µM | Individual replicates / Log AC50 (M) ([2]; 72 h, n = 1): -4.9486 Log AC50 (M) | AC50 [2, 3]: 1.42e-05 M

c1ccc(CCn2nc(-c3cnccn3)nc2CCCN2CCCCC2)cc1 [NCGC00390064-01]
Individual replicates / Log AC50 (M) [1]: -4.9986 Log AC50 (M) and -5.1486 Log AC50 (M) and -4.8486 Log AC50 (M) | Individual replicates / Log AC50 (M) ([2]; 72 h, n = 1): -4.7986 Log AC50 (M) and -5.0986 Log AC50 (M) and -4.7486 Log AC50 (M)

COC(=O)c1ccnc2cc(C(OCCC3CCCN3C)c3ccccc3Cl)[nH]c12 (stereo not shown) [NCGC00479019-01]
Individual replicates / Log AC50 (M) [1]: -5.1986 Log AC50 (M) and -5.1486 Log AC50 (M) | AC50 [1]: 5.03 µM | Individual replicates / Log AC50 (M) ([2]; 72 h, n = 1): -5.2986 Log AC50 (M) and -5.1486 Log AC50 (M) | AC50 [2, 3]: 7.1e-06 M

O=C(O)c1ccc(O)c2ncc(N3CCCNCC3)cc12 [NCGC00241047-01]
Individual replicates / Log AC50 (M) [1]: -4.8986 Log AC50 (M) and -4.8486 Log AC50 (M) | AC50 [1]: 15.9 µM | Individual replicates / Log AC50 (M) ([2]; 72 h, n = 1): -4.7986 Log AC50 (M) | AC50 [2, 3]: 1.59e-05 M

CN(C)C(=O)c1cccc(-c2cc(O)c3ncccc3c2)c1 [NCGC00244525-01]
Individual replicates / Log AC50 (M) [1]: -5.2486 Log AC50 (M) and -5.1486 Log AC50 (M) | AC50 [1]: 7.1 µM | Individual replicates / Log AC50 (M) ([2]; 72 h, n = 1): -5.1986 Log AC50 (M) and -5.0986 Log AC50 (M) | AC50 [2, 3]: 6.33e-06 M

Oc1ccc(CNc2cc(Cl)ccn2)c2cccnc12 [NCGC00241028-01]
Individual replicates / Log AC50 (M) [1]: -5.2986 Log AC50 (M) | AC50 [1]: 5.03 µM | Individual replicates / Log AC50 (M) ([2]; 72 h, n = 1): -5.3486 Log AC50 (M) and -5.2986 Log AC50 (M) | AC50 [2, 3]: 6.33e-06 M

CN(C)CC1CCN(C2CCN(C(=O)c3cccc(-c4cc(O)c5ncccc5c4)c3)CC2)CC1 [NCGC00247736-01]
Individual replicates / Log AC50 (M) [1]: -5.3486 Log AC50 (M) and -4.8486 Log AC50 (M) and -5.1486 Log AC50 (M) | Individual replicates / Log AC50 (M) ([2]; 72 h, n = 1): -4.7986 Log AC50 (M) and -5.0486 Log AC50 (M)

O=C(O)c1ccc(O)c2ncc(N3CCCN(C4CCCC4)CC3)cc12 [NCGC00241765-01]
Individual replicates / Log AC50 (M) [1]: -4.7486 Log AC50 (M) | AC50 [1]: 17.8 µM | Individual replicates / Log AC50 (M) ([2]; 72 h, n = 1): -4.7486 Log AC50 (M) and -4.6986 Log AC50 (M) | AC50 [2, 3]: 2e-05 M

O=C(c1cccc(-c2cc(O)c3ncccc3c2)c1)N1CCOCC1 [NCGC00244534-01]
Individual replicates / Log AC50 (M) [1]: -5.0486 Log AC50 (M) and -5.0986 Log AC50 (M) | AC50 [1]: 12.6 µM | Individual replicates / Log AC50 (M) ([2]; 72 h, n = 1): -5.0486 Log AC50 (M) | AC50 [2, 3]: 1.42e-05 M

Oc1ccc(COc2cccc3ccccc23)c2cccnc12 [NCGC00183380-01]
Individual replicates / Log AC50 (M) [1]: -4.7986 Log AC50 (M) and -4.7486 Log AC50 (M) | AC50 [1]: 20 µM | AC50 ([2]; 72 h, read-out: Individual replicates / Log AC50 (M) (converted); n = 1): 1.59e-05 M

CCCCOC(=O)c1ccnc2cc(C(=O)N(CCN(C)C)c3ccccc3)sc12 [NCGC00481684-01]
Individual replicates / Log AC50 (M) [1]: -4.7986 Log AC50 (M) | AC50 [1]: 17.8 µM | AC50 [2, 3]: 1.42e-05 M

CCCCOC(=O)c1ccnc2cc(-c3nc4ccccc4[nH]3)sc12 [NCGC00482448-01]
Individual replicates / Log AC50 (M) [1]: -5.7486 Log AC50 (M) and -5.6986 Log AC50 (M) | AC50 [1]: 2 µM | Individual replicates / Log AC50 (M) ([2]; 72 h, n = 1): -5.5986 Log AC50 (M) and -5.6986 Log AC50 (M) | AC50 [2, 3]: 2e-06 M

Oc1ccc(CNc2cccc(F)c2F)c2cccnc12 [NCGC00183376-01]
Individual replicates / Log AC50 (M) [1]: -4.7486 Log AC50 (M) | AC50 [1]: 17.8 µM | Individual replicates / Log AC50 (M) ([2]; 72 h; n = 1): -4.7486 Log AC50 (M) | AC50 [2, 3]: 1.78e-05 M

O=C(O)c1ccc(O)c2ncc(N3CCC(N4CCOCC4)C3)cc12 (stereo not shown) [NCGC00241757-01]
Individual replicates / Log AC50 (M) [1]: -4.9486 Log AC50 (M) and -4.7986 Log AC50 (M) | AC50 [1]: 10 µM | Individual replicates / Log AC50 (M) ([2]; 72 h; n = 1): -4.7986 Log AC50 (M) | AC50 [2, 3]: 1.59e-05 M

CC(=O)Nc1cccc(-c2csc(Nc3cc(C)ccn3)n2)c1 [MLS000550799-02]
Individual replicates / Log AC50 (M) [1]: -4.7486 Log AC50 (M) and -5.0986 Log AC50 (M) and -4.9486 Log AC50 (M) | Individual replicates / Log AC50 (M) ([2]; 72 h, n = 1): -4.7486 Log AC50 (M)

CCOC(=O)c1ccc(OC(C)=O)c2ncc(N3CCOCC3)cc12 [NCGC00244523-01]
Individual replicates / Log AC50 (M) [1]: -5.3486 Log AC50 (M) and -5.3986 Log AC50 (M) | AC50 [1]: 4.48 µM | Individual replicates / Log AC50 (M) ([2]; 72 h; n = 1): -5.3486 Log AC50 (M) | AC50 [2, 3]: 4.48e-06 M

CCOC(=O)c1ccnc2cc(C(OCCN3CCCCC3)c3ccccc3Cl)sc12 (stereo not shown) [NCGC00481512-01]
Individual replicates / Log AC50 (M) [1]: -5.1486 Log AC50 (M) | AC50 [1]: 5.64 µM | Individual replicates / Log AC50 (M) ([2]; 72 h, n = 1): -5.1986 Log AC50 (M) and -5.0986 Log AC50 (M) | AC50 [2, 3]: 7.97e-06 M
